PubChem BioAssay AID330 (DTP/NCI, 2004)
Toxic doses and inconclusive results are not listed. Rule for the calls: active = survival T/C of 150% or more; inactive = T/C below 125% in these data.

System: P388 leukemia ip, CD2F1 mice, survival T/C
Assay: NCI In Vivo Anticancer Drug Screen. Data for tumor model P388 Leukemia (intraperitoneal) in CD2F1 (CDF1) mice
Settings: endpoint: median survival time, higher = longer survival
Outline: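 Mice carrying the transplanted tumor received test compound or vehicle. Survival was recorded in each group, and the value is the treated-group measurement divided by that of the vehicle-treated control group.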

[1] = dose: 100.0 mg/kg/injection, schedule: Q04DX003 (ip), vehicle: Klucel (hydroxypropylcellulose) (HPC)
[2] = dose: 200.0 mg/kg/injection, schedule: Q04DX003 (ip), vehicle: Klucel (hydroxypropylcellulose) (HPC)
[3] = dose: 50.0 mg/kg/injection, schedule: Q01DX005 (ip), vehicle: Klucel (hydroxypropylcellulose) (HPC)
[4] = dose: 100.0 mg/kg/injection, schedule: Q01DX005 (ip), vehicle: Klucel (hydroxypropylcellulose) (HPC)
[5] = dose: 200.0 mg/kg/injection, schedule: Q01DX005 (ip), vehicle: Klucel (hydroxypropylcellulose) (HPC)
[6] = dose: 50.0 mg/kg/injection, schedule: Q01DX009 (ip), vehicle: saline with Tween-80
[7] = dose: 100.0 mg/kg/injection, schedule: Q01DX009 (ip), vehicle: saline with Tween-80
[8] = dose: 200.0 mg/kg/injection, schedule: Q01DX009 (ip), vehicle: saline with Tween-80
[9] = dose: 25.0 mg/kg/injection, schedule: Q01DX005 (ip), vehicle: Klucel (hydroxypropylcellulose) (HPC)
[10] = dose: 100.0 mg/kg/injection, schedule: Q04DX002 (ip), vehicle: saline with Tween-80
[11] = dose: 200.0 mg/kg/injection, schedule: Q04DX002 (ip), vehicle: saline with Tween-80
[12] = dose: 400.0 mg/kg/injection, schedule: Q04DX002 (ip), vehicle: saline with Tween-80
[13] = dose: 50.0 mg/kg/injection, schedule: Q01DX009 (ip), vehicle: suspension in saline
[14] = dose: 100.0 mg/kg/injection, schedule: Q01DX009 (ip), vehicle: suspension in saline
[15] = dose: 200.0 mg/kg/injection, schedule: Q01DX009 (ip), vehicle: suspension in saline
[16] = dose: 25.0 mg/kg/injection, schedule: Q01DX009 (ip), vehicle: saline with Tween-80

Measured: T/C

O=c1[nH]c(=S)[nH]c2nccnc12
inactive: [1] 105 % of control | [2] 118 % of control | dose: 400.0 mg/kg/injection, schedule: Q04DX003 (ip), vehicle: Klucel (hydroxypropylcellulose) (HPC) 112 % of control

CC(=NCCCCCCN=C(C)c1cc(O)ccc1O)c1cc(O)ccc1O
inactive: [3] 92 % of control | [4] 94 % of control | [5] 87 % of control

Cn1nc2c(c1-c1cccnc1)CCCc1ccccc1-2
inactive: dose: 12.5 mg/kg/injection, schedule: Q01DX009 (ip), vehicle: other 113 % of control | dose: 25.0 mg/kg/injection, schedule: Q01DX009 (ip), vehicle: other 110 % of control | dose: 50.0 mg/kg/injection, schedule: Q01DX009 (ip), vehicle: other 110 % of control | dose: 100.0 mg/kg/injection, schedule: Q01DX009 (ip), vehicle: other 99 % of control | dose: 200.0 mg/kg/injection, schedule: Q01DX009 (ip), vehicle: other 100 % of control

Cc1cccn2c(CCCc3nnc4c(C)cccn34)nnc12
inactive: [6] 100 % of control | [7] 101 % of control | [8] 101 % of control

O=C1NC(=S)NC(=O)C1=Cc1cccc2cc3ccccc3cc12
inactive: [9] 100 % of control | [3] 89 % of control | [4] 95 % of control

CC1(C)OC(=O)C(Cc2ccco2)C(=O)O1
inactive: [10] 97 % of control | [11] 106 % of control | [12] 101 % of control

O=C(O)C1CSC(c2coc3ccccc3c2=O)N1 (stereo not drawn)
inactive: [13] 108 % of control | [14] 117 % of control | [15] 108 % of control

Cc1cc(=O)[nH]c2c3sc4ccccc4c(=O)c3c3ccccc3c12
inactive: dose: 12.5 mg/kg/injection, schedule: Q04DX003 (ip), vehicle: Klucel (hydroxypropylcellulose) (HPC) 99 % of control | dose: 25.0 mg/kg/injection, schedule: Q04DX003 (ip), vehicle: Klucel (hydroxypropylcellulose) (HPC) 99 % of control | dose: 50.0 mg/kg/injection, schedule: Q04DX003 (ip), vehicle: Klucel (hydroxypropylcellulose) (HPC) 95 % of control | [1] 98 % of control

O=C(O)/C=C(\Br)C(=O)O
inactive: dose: 100.0 mg/kg/injection, schedule: Q04DX002 (ip), vehicle: saline 95 % of control | dose: 200.0 mg/kg/injection, schedule: Q04DX002 (ip), vehicle: saline 90 % of control

CCCCCCC(=O)/C=C/c1cc(OC)c(OC)cc1OC
inactive: [6] 100 % of control | [7] 94 % of control | [8] 96 % of control

COc1ccc2c(c1)NC(O)c1cccn1C2=O (stereo not drawn)
inactive: dose: 0.1 mg/kg/injection, schedule: Q01DX005 (ip), vehicle: water 91 % of control | dose: 0.2 mg/kg/injection, schedule: Q01DX005 (ip), vehicle: water 91 % of control | dose: 0.4 mg/kg/injection, schedule: Q01DX005 (ip), vehicle: water 93 % of control | dose: 0.8 mg/kg/injection, schedule: Q01DX005 (ip), vehicle: water 96 % of control | dose: 1.6 mg/kg/injection, schedule: Q01DX005 (ip), vehicle: water 102 % of control | dose: 5.0 mg/kg/injection, schedule: Q01DX005 (ip), vehicle: distilled water + Tween-80 100 % of control | dose: 10.0 mg/kg/injection, schedule: Q01DX005 (ip), vehicle: distilled water + Tween-80 94 % of control | dose: 20.0 mg/kg/injection, schedule: Q01DX005 (ip), vehicle: distilled water + Tween-80 100 % of control | dose: 40.0 mg/kg/injection, schedule: Q01DX005 (ip), vehicle: distilled water + Tween-80 95 % of control | dose: 80.0 mg/kg/injection, schedule: Q01DX005 (ip), vehicle: distilled water + Tween-80 91 % of control

CCNC(=O)/N=c1/sc([N+](=O)[O-])cn1CC(=O)N1CCCCC1
inactive: dose: 100.0 mg/kg/injection, schedule: Q04DX002 (ip), vehicle: Klucel (hydroxypropylcellulose) (HPC) 100 % of control | dose: 200.0 mg/kg/injection, schedule: Q04DX002 (ip), vehicle: Klucel (hydroxypropylcellulose) (HPC) 99 % of control | dose: 400.0 mg/kg/injection, schedule: Q04DX002 (ip), vehicle: Klucel (hydroxypropylcellulose) (HPC) 98 % of control

O=C(OCC(Cl)(Cl)Cl)N1C2C=CC(C3OC32)N1C(=O)OCC(Cl)(Cl)Cl (stereo not drawn)
inactive: [13] 88 % of control | [14] 90 % of control | [15] 98 % of control

CN1C(=O)[C@@H]2OCCOCCO[C@H]3C(=O)N(C)C(=O)[C@@H]3OCCOCCO[C@H]2C1=O
inactive: [9] 112 % of control | [3] 106 % of control | [4] 87 % of control | [5] 96 % of control

CCOc1c(N=Nc2ccccc2OC)c(C)nn1C(=S)SC
inactive: dose: 15.0 mg/kg/injection, schedule: Q01DX005 (ip), vehicle: Klucel + Tween-80 92 % of control | dose: 30.0 mg/kg/injection, schedule: Q01DX005 (ip), vehicle: Klucel + Tween-80 92 % of control | dose: 60.0 mg/kg/injection, schedule: Q01DX005 (ip), vehicle: Klucel + Tween-80 90 % of control

N#Cc1cccc[n+]1Cc1ccc([N+](=O)[O-])cc1
inactive: dose: 12.5 mg/kg/injection, schedule: Q01DX009 (ip), vehicle: saline with Tween-80 95 % of control | [16] 109 % of control | [6] 118 % of control

C/C1=C\CC(O)/C(C)=C/CC2=CCC(C(C)C)C2(C)CC1 (stereo not drawn)
inactive: dose: 4.0 mg/kg/injection, schedule: Q01DX009 (ip), vehicle: Klucel (hydroxypropylcellulose) (HPC) 101 % of control | dose: 8.0 mg/kg/injection, schedule: Q01DX009 (ip), vehicle: Klucel (hydroxypropylcellulose) (HPC) 101 % of control | dose: 16.0 mg/kg/injection, schedule: Q01DX009 (ip), vehicle: Klucel (hydroxypropylcellulose) (HPC) 102 % of control | dose: 32.0 mg/kg/injection, schedule: Q01DX009 (ip), vehicle: Klucel (hydroxypropylcellulose) (HPC) 102 % of control

O=C(CNC(=O)c1ccccc1)N/N=C/c1ccc2c(c1)OCO2
inactive: [16] 100 % of control | dose: 400.0 mg/kg/injection, schedule: Q01DX009 (ip), vehicle: saline with Tween-80 96 % of control

COC(=O)C1CC=CCC1C(=O)OC (stereo not drawn)
inactive: [10] 107 % of control | [11] 106 % of control | [12] 100 % of control

CN(C)CCN1CC2Cc3ccccc3C1c1ccccc12 (stereo not drawn)
inactive: [1] 102 % of control | [2] 102 % of control

COc1cc(/C=C/CO)cc(OC)c1OC1OC(CO)C(O)C(O)C1O (stereo not drawn)
inactive: dose: 10.0 mg/kg/injection, schedule: Q01DX009 (ip), vehicle: saline + alcohol 100 % of control | dose: 20.0 mg/kg/injection, schedule: Q01DX009 (ip), vehicle: saline + alcohol 110 % of control | dose: 40.0 mg/kg/injection, schedule: Q01DX009 (ip), vehicle: saline + alcohol 97 % of control | dose: 80.0 mg/kg/injection, schedule: Q01DX009 (ip), vehicle: saline + alcohol 100 % of control

CC(C)(O)C1OCC(C2CCC3(C)C4=CCC5C(C)(C)C(O)CCC5(C)C4CCC23C)CC1O (stereo not drawn)
inactive: dose: 2.5 mg/kg/injection, schedule: Q01DX009 (ip), vehicle: alcohol 98 % of control | dose: 5.0 mg/kg/injection, schedule: Q01DX009 (ip), vehicle: alcohol 101 % of control | dose: 10.0 mg/kg/injection, schedule: Q01DX009 (ip), vehicle: alcohol 100 % of control | dose: 20.0 mg/kg/injection, schedule: Q01DX009 (ip), vehicle: alcohol 99 % of control | dose: 40.0 mg/kg/injection, schedule: Q01DX009 (ip), vehicle: alcohol 110 % of control
